Assay results reported in PubChem BioAssay AID248 (DTP/NCI, 2004).
Values joined by “and” are separate entries in the source; they are usually repeats but may differ in a detail not shown here. Equal values may be shown once. Inconclusive results and toxic doses are left out. Cut-off read from the data, not from the text of the source: active = T/C of 150% or more; inactive = T/C below 125%.

Tested on: L1210 leukemia ip in BDF1 mice, survival T/C
Assay: NCI In Vivo Anticancer Drug Screen. Data for tumor model L1210 Leukemia (intraperitoneal) in B6D2F1 (BDF1) mice
Conditions: endpoint: mean survival time, higher = longer survival
Outline: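 Value reflects the ratio of survival in compound-treated mice to survival in vehicle-treated controls, with both groups carrying the same transplanted tumor.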

[1] = dose: 100.0 mg/kg/injection, schedule: Q01DX001 (ip), vehicle: saline
[2] = dose: 200.0 mg/kg/injection, schedule: Q01DX001 (ip), vehicle: saline
[3] = dose: 400.0 mg/kg/injection, schedule: Q01DX001 (ip), vehicle: saline
[4] = dose: 100.0 mg/kg/injection, schedule: Q01DX001 (ip), vehicle: Klucel (hydroxypropylcellulose) (HPC)
[5] = dose: 200.0 mg/kg/injection, schedule: Q01DX001 (ip), vehicle: Klucel (hydroxypropylcellulose) (HPC)
[6] = dose: 400.0 mg/kg/injection, schedule: Q01DX001 (ip), vehicle: Klucel (hydroxypropylcellulose) (HPC)
[7] = dose: 100.0 mg/kg/injection, schedule: Q04DX003 (ip), vehicle: saline
[8] = dose: 200.0 mg/kg/injection, schedule: Q04DX003 (ip), vehicle: saline
[9] = dose: 400.0 mg/kg/injection, schedule: Q04DX003 (ip), vehicle: saline
[10] = dose: 50.0 mg/kg/injection, schedule: Q01DX009 (ip), vehicle: Klucel (hydroxypropylcellulose) (HPC)

Measured: T/C

CN(C(=O)c1cc([N+](=O)[O-])ccc1O)c1ccccc1
inactive: [1] 98 % of control | [2] 95 % of control | [3] 101 % of control

C=CNC(=O)C(c1ccccc1)N1CCCCC1 (stereo not given)
inactive: [4] 102 % of control | [5] 97 % of control | [6] 103 % of control

Oc1ccccc1/C=N/Nc1nnc(N/N=C/c2ccccc2O)c2ccccc12
inactive: dose: 50.0 mg/kg/injection, schedule: Q01DX001 (ip), vehicle: carboxymethylcellulose (CMC) 109 % of control | dose: 100.0 mg/kg/injection, schedule: Q01DX001 (ip), vehicle: carboxymethylcellulose (CMC) 96 % of control | dose: 200.0 mg/kg/injection, schedule: Q01DX001 (ip), vehicle: carboxymethylcellulose (CMC) 97 % of control | dose: 400.0 mg/kg/injection, schedule: Q01DX001 (ip), vehicle: carboxymethylcellulose (CMC) 90 % of control

C=C1C(=O)CCC1C(=O)O (stereo not given)
inactive: dose: 100.0 mg/kg/injection, schedule: Q01DX009 (ip), vehicle: saline 101 % of control | dose: 200.0 mg/kg/injection, schedule: Q01DX009 (ip), vehicle: saline 110 % of control | dose: 400.0 mg/kg/injection, schedule: Q01DX009 (ip), vehicle: saline 112 % of control

Cc1ccc(S(=O)(=O)Oc2ccc(N(CC(=O)O)S(=O)(=O)c3ccc(C)cc3)cc2)cc1
inactive: dose: 100.0 mg/kg/injection, schedule: Q01DX001 (ip), vehicle: water 98 % of control | dose: 100.0 mg/kg/injection, schedule: Q04DX003 (ip), vehicle: water 94 % of control | dose: 200.0 mg/kg/injection, schedule: Q01DX001 (ip), vehicle: water 96 % of control | dose: 200.0 mg/kg/injection, schedule: Q04DX003 (ip), vehicle: water 88 % of control | dose: 400.0 mg/kg/injection, schedule: Q01DX001 (ip), vehicle: water 97 % of control | dose: 400.0 mg/kg/injection, schedule: Q04DX003 (ip), vehicle: water 96 % of control

O=C(Nc1cccc(C2=NCCCN2)c1)c1ccc(C(=O)Nc2cccc(C3=NCCCN3)c2)cc1
inactive: dose: 0.1 mg/kg/injection, schedule: Q01DX Z (ip), vehicle: saline 95 % of control | dose: 0.2 mg/kg/injection, schedule: Q01DX Z (ip), vehicle: saline 100 % of control | dose: 0.3 mg/kg/injection, schedule: Q01DX Z (ip), vehicle: saline 97 % of control | dose: 0.5 mg/kg/injection, schedule: Q01DX Z (ip), vehicle: saline 97 % of control

CC(=O)Oc1ccc2c(C)cc(=O)oc2c1
inactive: [1] 100 % of control | [2] 109 % of control

CNc1c(C)n(C)n(-c2ccccc2)c1=O.[Cl][Pd]([Cl])([Cl])[Cl]
inactive: dose: 50.0 mg/kg/injection, schedule: Q04DX003 (ip), vehicle: saline 106 % of control | [7] 111 % of control | [8] 100 % of control

O=NN(CCBr)C(=O)Nc1ccccc1
active: dose: 111.0 mg/kg/injection, schedule: Q01DX001 (ip), vehicle: carboxymethylcellulose (CMC) 153 % of control | dose: 222.0 mg/kg/injection, schedule: Q01DX001 (ip), vehicle: carboxymethylcellulose (CMC) 161 % of control
inactive: dose: 444.0 mg/kg/injection, schedule: Q01DX001 (ip), vehicle: carboxymethylcellulose (CMC) 124 % of control

Cc1c2ccc3ccccc3c2cc2cccc(C#N)c12
inactive: [4] 106 % of control | [5] 98 % of control | [6] 98 % of control

N#Cc1nc(CSc2ccc(Cl)cc2)cnc1N
inactive: [4] 95 % of control | [5] 92 % of control | [6] 89 % of control

CCNc1nc(Cl)nc(-c2cn(-c3ccccc3)c3ccccc23)n1
inactive: [1] 93 % of control | dose: 100.0 mg/kg/injection, schedule: Q01DX009 (ip), vehicle: saline with Tween-80 101 % of control | [7] 99 % of control | [2] 90 % of control | dose: 200.0 mg/kg/injection, schedule: Q01DX009 (ip), vehicle: saline with Tween-80 92 % of control | [8] 92 % of control | [3] 88 % of control | [9] 94 % of control

O=C(CCl)Nc1cc(Cl)c(Cl)cc1Cl
inactive: dose: 100.0 mg/kg/injection, schedule: Q04DX003 (ip), vehicle: saline with Tween-80 97 % of control | dose: 200.0 mg/kg/injection, schedule: Q04DX003 (ip), vehicle: saline with Tween-80 97 % of control | dose: 400.0 mg/kg/injection, schedule: Q04DX003 (ip), vehicle: saline with Tween-80 106 % of control

NC(=O)NCC(=O)O
inactive: dose: 50.0 mg/kg/injection, schedule: Q01DX001 (ip), vehicle: Klucel (hydroxypropylcellulose) (HPC) 96 % of control | [10] 91 % of control | [4] 100 % of control | dose: 100.0 mg/kg/injection, schedule: Q01DX009 (ip), vehicle: Klucel (hydroxypropylcellulose) (HPC) 100 % of control | [5] 100 % of control | dose: 200.0 mg/kg/injection, schedule: Q01DX009 (ip), vehicle: Klucel (hydroxypropylcellulose) (HPC) 96 % of control | [6] 94 % of control

O=[N+]([O-])c1ccccc1N=Nc1c(O)[nH]c2c(Cl)cccc12
inactive: [1] 97 % of control | [2] 100 % of control | [3] 97 % of control

Cc1nnc(NS(=O)(=O)c2ccc(N=Nc3c(N)[nH]c(=S)[nH]c3=O)cc2)s1
inactive: [1] 100 % of control | [2] 100 % of control | [3] 100 % of control

O=C1C=CC(=Nc2cc(Cl)c(O)c(Cl)c2)C(Cl)=C1
inactive: dose: 12.5 mg/kg/injection, schedule: Q01DX009 (ip), vehicle: Klucel (hydroxypropylcellulose) (HPC) 96 % of control | dose: 25.0 mg/kg/injection, schedule: Q01DX009 (ip), vehicle: Klucel (hydroxypropylcellulose) (HPC) 96 % of control | [10] 92 % of control

O=C(NCCF)NC1CCSCC1
inactive: dose: 100.0 mg/kg/injection, schedule: Q01DX001 (ip), vehicle: other 112 % of control | dose: 200.0 mg/kg/injection, schedule: Q01DX001 (ip), vehicle: other 103 % of control | dose: 400.0 mg/kg/injection, schedule: Q01DX001 (ip), vehicle: other 98 % of control

N#CC(C#N)=CN1CCOCC1
inactive: dose: 100.0 mg/kg/injection, schedule: Q04DX002 (ip), vehicle: saline with Tween-80 87 % of control | dose: 200.0 mg/kg/injection, schedule: Q04DX002 (ip), vehicle: saline with Tween-80 87 % of control

NNc1cc(S(=O)(=O)O)cc2cc(S(=O)(=O)O)cc(O)c12
inactive: dose: 75.0 mg/kg/injection, schedule: Q01DX009 (ip), vehicle: Klucel (hydroxypropylcellulose) (HPC) 107 % of control | dose: 150.0 mg/kg/injection, schedule: Q01DX009 (ip), vehicle: Klucel (hydroxypropylcellulose) (HPC) 107 % of control | dose: 300.0 mg/kg/injection, schedule: Q01DX009 (ip), vehicle: Klucel (hydroxypropylcellulose) (HPC) 104 % of control

O=[N+]([O-])c1cc2c(c([N+](=O)[O-])c1)OCOC2
inactive: [7] 100 % of control | [8] 97 % of control | [9] 107 % of control

O=C(NCC(O)CNC(=O)Nc1ccc(C2=NCCCN2)cc1)Nc1ccc(C2=NCCCN2)cc1
inactive: dose: 1.25 mg/kg/injection, schedule: Q01DX Z (ip), vehicle: carboxymethylcellulose (CMC) 98 % of control | dose: 2.5 mg/kg/injection, schedule: Q01DX Z (ip), vehicle: carboxymethylcellulose (CMC) 101 % of control | dose: 5.0 mg/kg/injection, schedule: Q01DX Z (ip), vehicle: carboxymethylcellulose (CMC) 90 % of control | dose: 10.0 mg/kg/injection, schedule: Q01DX Z (ip), vehicle: carboxymethylcellulose (CMC) 97 % of control and 106 % of control | dose: 20.0 mg/kg/injection, schedule: Q01DX Z (ip), vehicle: carboxymethylcellulose (CMC) 104 % of control

CCC[CH2][Sn]([CH2]CCC)([O]C)[O]C
inactive: dose: 4.0 mg/kg/injection, schedule: Q01DX009 (ip), vehicle: Klucel (hydroxypropylcellulose) (HPC) 98 % of control | dose: 4.0 mg/kg/injection, schedule: Q04DX003 (ip), vehicle: Klucel (hydroxypropylcellulose) (HPC) 96 % of control | dose: 8.0 mg/kg/injection, schedule: Q01DX009 (ip), vehicle: Klucel (hydroxypropylcellulose) (HPC) 98 % of control | dose: 8.0 mg/kg/injection, schedule: Q04DX003 (ip), vehicle: Klucel (hydroxypropylcellulose) (HPC) 101 % of control | dose: 16.0 mg/kg/injection, schedule: Q01DX009 (ip), vehicle: Klucel (hydroxypropylcellulose) (HPC) 104 % of control | dose: 16.0 mg/kg/injection, schedule: Q04DX003 (ip), vehicle: Klucel (hydroxypropylcellulose) (HPC) 99 % of control

C1=C\CCCC/C=C/CC/1
inactive: dose: 50.0 mg/kg/injection, schedule: Q01DX001 (ip), vehicle: saline 103 % of control | [1] 92 % of control | [2] 101 % of control | [3] 90 % of control
